Measurements: the NIST ThermoML archive (doi:10.1021/acs.jced.8b00132)
Where “and” joins values, the source holds several entries; their conditions need not be identical. Equal values may be shown once. ± gives the expanded uncertainty stated by the source.

Work on O=C(C(F)(F)C(F)(F)F)C(F)(C(F)(F)F)C(F)(F)F [dodecafluoro-2-methylpentan-3-one] yielded a thermal conductivity (387.99 K, 395 kPa, Gas, hot wire) of 0.0199 ± 0.00094 W/m/K, a thermal conductivity (388 K, 395 kPa, Gas, hot wire) of 0.01971 ± 0.00093 W/m/K and a thermal conductivity (388.06 K, 258 kPa, Gas, hot wire) of 0.01842 ± 0.00087 W/m/K. The thermal conductivity (388.07 K, 128 kPa, Gas, hot wire) was 0.01819 ± 0.00086 W/m/K and 0.01818 ± 0.00086 W/m/K, the thermal conductivity (388.08 K, 257 kPa, Gas, hot wire) was 0.01826 ± 0.00086 W/m/K and the thermal conductivity (388.1 K, 26 kPa, Gas, hot wire) was 0.01771 ± 0.00083 W/m/K and 0.01756 ± 0.00083 W/m/K. It also gave a thermal conductivity (388.1 K, 394 kPa, Gas, hot wire) of 0.01994 ± 0.00095 W/m/K, a thermal conductivity (388.1 K, 395 kPa, Gas, hot wire) of 0.01983 ± 0.00094 W/m/K and a thermal conductivity (388.18 K, 257 kPa, Gas, hot wire) of 0.01851 ± 0.00087 W/m/K. For the same compound, the thermal conductivity (388.19 K, 128 kPa, Gas, hot wire) was 0.01818 ± 0.00086 W/m/K, the thermal conductivity (388.19 K, 256 kPa, Gas, hot wire) was 0.0184 ± 0.00087 W/m/K and the thermal conductivity (388.2 K, 128 kPa, Gas, hot wire) was 0.01804 ± 0.00085 W/m/K. The thermal conductivity (388.2 K, 395 kPa, Gas, hot wire) was 0.01983 ± 0.00094 W/m/K, the thermal conductivity (388.22 K, 394 kPa, Gas, hot wire) was 0.01966 ± 0.00093 W/m/K and the thermal conductivity (388.23 K, 26 kPa, Gas, hot wire) was 0.01766 ± 0.00083 W/m/K and 0.0176 ± 0.00083 W/m/K. The thermal conductivity (388.3 K, 256 kPa, Gas, hot wire) was 0.01853 ± 0.00087 W/m/K, the thermal conductivity (388.31 K, 256 kPa, Gas, hot wire) was 0.01853 ± 0.00087 W/m/K and the thermal conductivity (388.31 K, 396 kPa, Gas, hot wire) was 0.01994 ± 0.00095 W/m/K. It also gave a thermal conductivity (388.32 K, 395 kPa, Gas, hot wire) of 0.01985 ± 0.00094 W/m/K, a thermal conductivity (388.33 K, 127 kPa, Gas, hot wire) of 0.01792 ± 0.00084 W/m/K and a thermal conductivity (388.33 K, 128 kPa, Gas, hot wire) of 0.01804 ± 0.00085 W/m/K. The thermal conductivity (388.36 K, 26 kPa, Gas, hot wire) was 0.0176 ± 0.00083 W/m/K, the thermal conductivity (388.37 K, 26 kPa, Gas, hot wire) was 0.01755 ± 0.00082 W/m/K and the thermal conductivity (388.43 K, 254 kPa, Gas, hot wire) was 0.01861 ± 0.00088 W/m/K. It also gave a thermal conductivity (388.43 K, 255 kPa, Gas, hot wire) of 0.01863 ± 0.00088 W/m/K, a thermal conductivity (388.43 K, 396 kPa, Gas, hot wire) of 0.01991 ± 0.00095 W/m/K and a thermal conductivity (388.45 K, 397 kPa, Gas, hot wire) of 0.01966 ± 0.00093 W/m/K. It also gave a thermal conductivity (388.47 K, 127 kPa, Gas, hot wire) of 0.01796 ± 0.00084 W/m/K, a thermal conductivity (388.48 K, 127 kPa, Gas, hot wire) of 0.0179 ± 0.00084 W/m/K and a thermal conductivity (388.49 K, 516 kPa, Gas, transient hot wire) of 0.01836 ± 0.0011 W/m/K. For the same compound, the thermal conductivity (388.5 K, 26 kPa, Gas, hot wire) was 0.01759 ± 0.00083 W/m/K, the thermal conductivity (388.51 K, 26 kPa, Gas, hot wire) was 0.01751 ± 0.00082 W/m/K and the thermal conductivity (388.53 K, 395 kPa, Gas, transient hot wire) was 0.01832 ± 0.0011 W/m/K. The thermal conductivity (388.56 K, 254 kPa, Gas, hot wire) was 0.01874 ± 0.00088 W/m/K, the thermal conductivity (388.56 K, 255 kPa, Gas, hot wire) was 0.01872 ± 0.00088 W/m/K and the thermal conductivity (388.62 K, 127 kPa, Gas, hot wire) was 0.01791 ± 0.00084 W/m/K. For the same compound, the thermal conductivity (388.62 K, 257 kPa, Gas, transient hot wire) was 0.01852 ± 0.0011 W/m/K, the thermal conductivity (388.65 K, 26 kPa, Gas, hot wire) was 0.01756 ± 0.00083 W/m/K and the thermal conductivity (388.66 K, 26 kPa, Gas, hot wire) was 0.01755 ± 0.00082 W/m/K. The thermal conductivity (388.67 K, 515 kPa, Gas, transient hot wire) was 0.01836 ± 0.0011 W/m/K, the thermal conductivity (388.68 K, 516 kPa, Gas, transient hot wire) was 0.01848 ± 0.0011 W/m/K and the thermal conductivity (388.72 K, 394 kPa, Gas, transient hot wire) was 0.01847 ± 0.0011 W/m/K. For the same compound, the thermal conductivity (388.73 K, 395 kPa, Gas, transient hot wire) was 0.01843 ± 0.0011 W/m/K, the thermal conductivity (388.77 K, 619 kPa, Gas, transient hot wire) was 0.01829 ± 0.0011 W/m/K and the thermal conductivity (388.79 K, 619 kPa, Gas, transient hot wire) was 0.0182 ± 0.0011 W/m/K. It also gave a thermal conductivity (388.81 K, 257 kPa, Gas, transient hot wire) of 0.01868 ± 0.0011 W/m/K, a thermal conductivity (388.82 K, 256 kPa, Gas, transient hot wire) of 0.01825 ± 0.0011 W/m/K and a thermal conductivity (388.87 K, 514 kPa, Gas, transient hot wire) of 0.01853 ± 0.0011 W/m/K. The thermal conductivity (388.93 K, 394 kPa, Gas, transient hot wire) was 0.01809 ± 0.0011 W/m/K and 0.01843 ± 0.0011 W/m/K, the thermal conductivity (388.98 K, 619 kPa, Gas, transient hot wire) was 0.01836 ± 0.0011 W/m/K and 0.01835 ± 0.0011 W/m/K and the thermal conductivity (389.04 K, 256 kPa, Gas, transient hot wire) was 0.01865 ± 0.0011 W/m/K. It also gave a thermal conductivity (389.05 K, 256 kPa, Gas, transient hot wire) of 0.01868 ± 0.0011 W/m/K, a thermal conductivity (389.08 K, 515 kPa, Gas, transient hot wire) of 0.01859 ± 0.0011 W/m/K and a thermal conductivity (389.15 K, 395 kPa, Gas, transient hot wire) of 0.01856 ± 0.0011 W/m/K. For the same compound, the thermal conductivity (389.19 K, 619 kPa, Gas, transient hot wire) was 0.01856 ± 0.0011 W/m/K and 0.01854 ± 0.0011 W/m/K, the thermal conductivity (389.26 K, 256 kPa, Gas, transient hot wire) was 0.01862 ± 0.0011 W/m/K and the thermal conductivity (389.27 K, 255 kPa, Gas, transient hot wire) was 0.0187 ± 0.0011 W/m/K. The thermal conductivity (389.29 K, 513 kPa, Gas, transient hot wire) was 0.01867 ± 0.0011 W/m/K, the thermal conductivity (389.29 K, 514 kPa, Gas, transient hot wire) was 0.01867 ± 0.0011 W/m/K and the thermal conductivity (389.3 K, 67954 kPa, Liquid, transient hot wire) was 0.07227 ± 0.0015 W/m/K. The thermal conductivity (389.31 K, 53809 kPa, Liquid, transient hot wire) was 0.06794 ± 0.0014 W/m/K, the thermal conductivity (389.31 K, 53833 kPa, Liquid, transient hot wire) was 0.06806 ± 0.0014 W/m/K and the thermal conductivity (389.31 K, 67979 kPa, Liquid, transient hot wire) was 0.0723 ± 0.0015 W/m/K. It also gave a thermal conductivity (389.38 K, 396 kPa, Gas, transient hot wire) of 0.01859 ± 0.0011 W/m/K, a thermal conductivity (389.38 K, 397 kPa, Gas, transient hot wire) of 0.01856 ± 0.0011 W/m/K and a thermal conductivity (389.42 K, 40396 kPa, Liquid, transient hot wire) of 0.06362 ± 0.0013 W/m/K. The thermal conductivity (389.42 K, 40406 kPa, Liquid, transient hot wire) was 0.06374 ± 0.0013 W/m/K, the thermal conductivity (389.43 K, 67897 kPa, Liquid, transient hot wire) was 0.07231 ± 0.0015 W/m/K and the thermal conductivity (389.43 K, 67923 kPa, Liquid, transient hot wire) was 0.07209 ± 0.0015 W/m/K. The thermal conductivity (389.48 K, 29881 kPa, Liquid, transient hot wire) was 0.05966 ± 0.0012 W/m/K, the thermal conductivity (389.5 K, 254 kPa, Gas, transient hot wire) was 0.01874 ± 0.0012 W/m/K and the thermal conductivity (389.5 K, 53787 kPa, Liquid, transient hot wire) was 0.06829 ± 0.0014 W/m/K. The thermal conductivity (389.51 K, 255 kPa, Gas, transient hot wire) was 0.01838 ± 0.0011 W/m/K, the thermal conductivity (389.51 K, 53794 kPa, Liquid, transient hot wire) was 0.06804 ± 0.0014 W/m/K and the thermal conductivity (389.53 K, 21435 kPa, Liquid, transient hot wire) was 0.05599 ± 0.0012 W/m/K. It also gave a thermal conductivity (389.54 K, 21442 kPa, Liquid, transient hot wire) of 0.05607 ± 0.0012 W/m/K, a thermal conductivity (389.56 K, 40379 kPa, Liquid, transient hot wire) of 0.06355 ± 0.0013 W/m/K and a thermal conductivity (389.56 K, 40384 kPa, Liquid, transient hot wire) of 0.06363 ± 0.0013 W/m/K. For the same compound, the thermal conductivity (389.57 K, 67853 kPa, Liquid, transient hot wire) was 0.07219 ± 0.0015 W/m/K, the thermal conductivity (389.57 K, 67877 kPa, Liquid, transient hot wire) was 0.0722 ± 0.0015 W/m/K and the thermal conductivity (389.58 K, 14725 kPa, Liquid, transient hot wire) was 0.05279 ± 0.0011 W/m/K. It also gave a thermal conductivity (389.58 K, 14726 kPa, Liquid, transient hot wire) of 0.05278 ± 0.0011 W/m/K, a thermal conductivity (389.63 K, 29870 kPa, Liquid, transient hot wire) of 0.05967 ± 0.0012 W/m/K and a thermal conductivity (389.63 K, 29871 kPa, Liquid, transient hot wire) of 0.05964 ± 0.0012 W/m/K.
